The values that follow come from patent publication US10329320B2, “Neuroactive steroids, compositions, and uses thereof” (Sage Therapeutics, Inc., priority 2015, dated 2019).

As usually defined, the IC50 is the concentration that inhibits the measured activity by half.

In the test the target is GABAA receptor ([35S]-TBPS binding, rat brain cortical membranes). The test is described as follows: Steroid inhibition of [35S]-TBPS binding (radioligand displacement). The conditions noted are these: 3 nM [35S]-TBPS, in the presence of 5 μM GABA. How it is done: TBPS binding assays using rat brain cortical membranes in the presence of 5 μM GABA has been described (Gee et al, J. Pharmacol. Exp. Ther. 1987, 241, 346-353; Hawkinson et al, Mol. Pharmacol. 1994, 46, 977-985; Lewin, A. H et al., Mol. Pharmacol. 1989, 35, 189-194).
Briefly, cortices are rapidly removed following decapitation of carbon dioxide-anesthetized Sprague-Dawley rats (200-250 g). The cortices are homogenized in 10 volumes of ice-cold 0.32 M sucrose using a glass/teflon homogenizer and centrifuged at 1500×g for 10 min at 4° C. The resultant supernatants are centrifuged at 10,000×g for 20 min at 4° C. to obtain the P2 pellets. The P2 pellets are resuspended in 200 mM NaCl/50 mM Na—K phosphate pH 7.4 buffer and centrifuged at 10,000×g for 10 min at 4° C. This washing procedure is repeated twice and the pellets are resuspended in 10 volumes of buffer. Aliquots (100 μL) of the membrane suspensions are incubated with 3 nM [^35S]-TBPS and 5 μL aliquots of test drug dissolved in dimethyl sulfoxide (DMSO) (final 0.5%) in the presence of 5 μM GABA. The incubation is brought to a final volume of 1.0 mL with buffer. Nonspecific binding is determined in the presence of 2 μM unlabeled TBPS and ranged from 15 to 25%. Following a 90 min incubation at room temp, the assays are terminated by filtration through glass fiber filters (Schleicher and Schuell No. 32) using a cell harvester (Brandel) and rinsed three times with ice-cold buffer. Filter bound radioactivity is measured by liquid scintillation spectrometry. Non-linear curve fitting of the overall data for each drug averaged for each concentration is done using Prism (GraphPad). […] The concentration of test compound producing 50% inhibition (IC50) of specific binding and the maximal extent of inhibition (Imax) are determined for the individual experiments with the same model used for the overall data and then the means ±SEM.s of the individual experiments are calculated.
Various compounds are or can be screened to determine their potential as modulators of [^35S]-TBPS binding in vitro. These assays are or can be performed in accordance with the above discussed procedures.
Background: Displacement assays read how much labelled ligand stays bound in the presence of the test substance.
`COC[C@]12CC[C@@](C)(O)C[C@@H]1CC[C@H]1[C@@H]3CC[C@H](C(=O)Cn4nc5cc(F)cc(F)c5n4)[C@@]3(C)CC[C@@H]12` [Compound 10]: the concentration for half-maximal inhibition (IC50) is less than 10 nM. For the compound `COC[C@]12CC[C@@](C)(O)C[C@@H]1CC[C@H]1[C@@H]3CC[C@H](C(=O)Cn4nnc5cc(Cl)cnc54)[C@@]3(C)CC[C@@H]12` [Compound 12], the half-maximal inhibitory concentration (IC50) was less than 10 nM.

For `COC[C@]12CC[C@@](C)(O)C[C@@H]1CC[C@H]1[C@@H]3CC[C@H](C(=O)Cn4nc5cc(Cl)cnc5n4)[C@@]3(C)CC[C@@H]12` [Compound 13], the half-maximal inhibitory concentration (IC50) was less than 10 nM. As to `COC[C@]12CC[C@@](C)(O)C[C@H]1CC[C@H]1[C@@H]3CC[C@H](C(=O)Cn4cc5ccc(F)cc5n4)[C@@]3(C)CC[C@@H]12` [Compound 14], the IC50 was less than 10 nM. Turning to `COC[C@]12CC[C@@](C)(O)C[C@H]1CC[C@H]1[C@@H]3CC[C@H](C(=O)Cn4ncc5ccc(F)cc54)[C@@]3(C)CC[C@@H]12` [Compound 15], the half-inhibitory concentration (IC50) is less than 10 nM. As to `COC[C@]12CC[C@@](C)(O)C[C@H]1CC[C@H]1[C@@H]3CC[C@H](C(=O)Cn4ncc5cc(F)ccc54)[C@@]3(C)CC[C@@H]12` [Compound 16], the IC50 is less than 10 nM. Regarding `COC[C@]12CC[C@@](C)(O)C[C@H]1CC[C@H]1[C@@H]3CC[C@H](C(=O)Cn4cc5cc(F)ccc5n4)[C@@]3(C)CC[C@@H]12` [Compound 17], the IC50 was in the range of 10 to 50 nM. As for `COC[C@]12CC[C@@](C)(O)C[C@H]1CC[C@H]1[C@@H]3CC[C@H](C(=O)Cn4nnc5ccccc54)[C@@]3(C)CC[C@@H]12` [Compound 18], the IC50 is less than 10 nM. The same measure for `COC[C@]12CC[C@@](C)(O)C[C@H]1CC[C@H]1[C@@H]3CC[C@H](C(=O)Cn4cc5ccccc5n4)[C@@]3(C)CC[C@@H]12` [Compound 19]: less than 10 nM; for `COC[C@]12CC[C@@](C)(O)C[C@H]1CC[C@H]1[C@@H]3CC[C@H](C(=O)Cn4cc(SC)cn4)[C@@]3(C)CC[C@@H]12` [Compound 21]: less than 10 nM. Under `COC[C@]12CC[C@@](C)(O)C[C@H]1CC[C@H]1[C@@H]3CC[C@H](C(=O)Cn4cc([S+](C)[O-])cn4)[C@@]3(C)CC[C@@H]12` (some centres unmarked) [Compound 22] stands 100 to 500 nM. The same measure for `COC[C@]12CC[C@@](C)(O)C[C@H]1CC[C@H]1[C@@H]3CC[C@H](C(=O)Cn4nc5ccc(Cl)c(F)c5n4)[C@@]3(C)CC[C@@H]12` [Compound 24]: less than 10 nM; for `COC[C@]12CC[C@@](C)(O)C[C@H]1CC[C@H]1[C@@H]3CC[C@H](C(=O)Cn4nnc5ccc(OC)cc54)[C@@]3(C)CC[C@@H]12` [Compound 25]: less than 10 nM. Regarding `COC[C@]12CC[C@@](C)(O)C[C@H]1CC[C@H]1[C@@H]3CC[C@H](C(=O)Cn4nnc5cc(OC)ccc54)[C@@]3(C)CC[C@@H]12` [Compound 26], the concentration for half-maximal inhibition (IC50) was less than 10 nM. For the compound `COC[C@]12CC[C@@](C)(O)C[C@H]1CC[C@H]1[C@@H]3CC[C@H](C(=O)Cn4nc5ccc(OC)cc5n4)[C@@]3(C)CC[C@@H]12` [Compound 27], the half-inhibitory concentration (IC50) was less than 10 nM. With `COC[C@]12CC[C@@](C)(O)C[C@H]1CC[C@H]1[C@@H]3CC[C@H](C(=O)Cn4nnc5c(OC)cccc54)[C@@]3(C)CC[C@@H]12` [Compound 28], the IC50 was less than 10 nM. Turning to `COC[C@]12CC[C@@](C)(O)C[C@H]1CC[C@H]1[C@@H]3CC[C@H](C(=O)Cn4nnc5cccc(OC)c54)[C@@]3(C)CC[C@@H]12` [Compound 29], the IC50 is less than 10 nM. For `COC[C@]12CC[C@@](C)(O)C[C@H]1CC[C@H]1[C@@H]3CC[C@H](C(=O)Cn4nc5cccc(OC)c5n4)[C@@]3(C)CC[C@@H]12` [Compound 30], the 50% inhibitory concentration (IC50) is less than 10 nM.

As to `COC[C@]12CC[C@@](C)(O)C[C@H]1CC[C@H]1[C@@H]3CC[C@H](C(=O)Cn4cc(SC)cn4)[C@@]3(C)CC[C@@H]12` [Compound 34], the IC50 was 10 to 50 nM. Under `COC[C@]12CC[C@@](C)(O)C[C@H]1CC[C@H]1[C@@H]3CC[C@H](C(=O)Cn4cc([S+](C)[O-])cn4)[C@@]3(C)CC[C@@H]12` (some centres unmarked) [Compound 35] stands more than 500 nM. With `COC[C@]12CC[C@@](C)(O)C[C@@H]1CC[C@H]1[C@@H]3CC[C@H](C(=O)Cn4ccnc4C#N)[C@@]3(C)CC[C@@H]12` [Compound 36], the half-inhibitory concentration (IC50) lay in the range of 100 to 500 nM. The same measure for `COC[C@]12CC[C@@](C)(O)C[C@@H]1CC[C@H]1[C@@H]3CC[C@H](C(=O)Cn4cc(OC)cn4)[C@@]3(C)CC[C@@H]12` [Compound 37]: 100 to 500 nM. Turning to `COC[C@]12CC[C@@](C)(O)C[C@@H]1CC[C@H]1[C@@H]3CC[C@H](C(=O)Cn4cc(OC(C)C)cn4)[C@@]3(C)CC[C@@H]12` [Compound 38], the IC50 was in the range of 50 to 100 nM.

With `COC[C@]12CC[C@@](C)(O)C[C@@H]1CC[C@H]1[C@@H]3CC[C@H](C(=O)Cn4cc5c(OC)cccc5n4)[C@@]3(C)CC[C@@H]12` [Compound 40], the IC50 lay within 50 to 100 nM. The same measure for `COC[C@]12CC[C@@](C)(O)C[C@@H]1CC[C@H]1[C@@H]3CC[C@H](C(=O)Cn4ncc5cccc(OC)c54)[C@@]3(C)CC[C@@H]12` [Compound 41]: 50 to 100 nM.

On to `COC[C@]12CC[C@@](C)(O)C[C@@H]1CC[C@H]1[C@@H]3CC[C@H](C(=O)Cn4cc5ccc(OC)cc5n4)[C@@]3(C)CC[C@@H]12` [Compound 42], for which the half-inhibitory concentration (IC50) lay within 10 to 50 nM. For `COC[C@]12CC[C@@](C)(O)C[C@@H]1CC[C@H]1[C@@H]3CC[C@H](C(=O)Cn4ncc5cc(OC)ccc54)[C@@]3(C)CC[C@@H]12` [Compound 43], the IC50 lay within 50 to 100 nM.

Consider `COC[C@]12CC[C@@](C)(O)C[C@@H]1CC[C@H]1[C@@H]3CC[C@H](C(=O)Cn4cc5c(OC)cccc5n4)[C@@]3(C)CC[C@@H]12` [Compound 44], for which the IC50 was 10 to 50 nM. Turning to `COC[C@]12CC[C@@](C)(O)C[C@@H]1CC[C@H]1[C@@H]3CC[C@H](C(=O)Cn4ncc5c(OC)cccc54)[C@@]3(C)CC[C@@H]12` [Compound 45], the IC50 lay in the range of 50 to 100 nM. On to `COC[C@]12CC[C@@](C)(O)C[C@@H]1CC[C@H]1[C@@H]3CC[C@H](C(=O)Cn4cc5ccncc5n4)[C@@]3(C)CC[C@@H]12` [Compound 46], for which the 50% inhibitory concentration (IC50) is 10 to 50 nM. For `COC[C@]12CC[C@@](C)(O)C[C@@H]1CC[C@H]1[C@@H]3CC[C@H](C(=O)Cn4ncc5cccnc54)[C@@]3(C)CC[C@@H]12` [Compound 47], the 50% inhibitory concentration (IC50) was in the range of 10 to 50 nM. As for `COC[C@]12CC[C@@](C)(O)C[C@@H]1CC[C@H]1[C@@H]3CC[C@H](C(=O)Cn4cc5ccc(OC)cc5n4)[C@@]3(C)CC[C@@H]12` [Compound 48], the IC50 lay within 50 to 100 nM.

In the case of `COC[C@]12CC[C@@](C)(O)C[C@@H]1CC[C@H]1[C@@H]3CC[C@H](C(=O)Cn4ncc5ccc(OC)cc54)[C@@]3(C)CC[C@@H]12` [Compound 49], the IC50 was 50 to 100 nM. The same measure for `COC[C@]12CC[C@@](C)(O)C[C@@H]1CC[C@H]1[C@@H]3CC[C@H](C(=O)Cn4nnc5c(F)c(Cl)ccc54)[C@@]3(C)CC[C@@H]12` [Compound 51]: less than 10 nM. The same measure for `COC[C@]12CC[C@@](C)(O)C[C@H]1CC[C@H]1[C@@H]3CC[C@H](C(=O)Cn4cnc(F)c4)[C@@]3(C)CC[C@@H]12` [Compound 52]: 10 to 50 nM; for `COC[C@]12CC[C@@](C)(O)C[C@@H]1CC[C@H]1[C@@H]3CC[C@H](C(=O)Cn4cnc(F)c4)[C@@]3(C)CC[C@@H]12` [Compound 59]: 100 to 500 nM. Under `COC[C@]12CC[C@@](C)(O)C[C@@H]1CC[C@H]1[C@@H]3CC[C@H](C(=O)Cn4cc(C)cn4)[C@@]3(C)CC[C@@H]12` [Compound 60] stands 100 to 500 nM; under `CCOc1cnn(CC(=O)[C@H]2CC[C@H]3[C@@H]4CC[C@H]5C[C@](C)(O)CC[C@]5(COC)[C@H]4CC[C@]23C)c1` [Compound 61], 100 to 500 nM; under `COC[C@]12CC[C@@](C)(O)C[C@H]1CC[C@H]1[C@@H]3CC[C@H](C(=O)Cn4nnnc4C)[C@@]3(C)CC[C@@H]12` [Compound 63], 100 to 500 nM. For the compound `COC[C@]12CC[C@@](C)(O)C[C@H]1CC[C@H]1[C@@H]3CC[C@H](C(=O)Cn4ccnc4C)[C@@]3(C)CC[C@@H]12` [Compound 64], the half-maximal inhibitory concentration (IC50) lay within 100 to 500 nM. The same measure for `COC[C@]12CC[C@@](C)(O)C[C@H]1CC[C@H]1[C@@H]3CC[C@H](C(=O)Cn4cc(N)cn4)[C@@]3(C)CC[C@@H]12` [Compound 66]: 10 to 50 nM.

On to `COC[C@]12CC[C@@](C)(O)C[C@H]1CC[C@H]1[C@@H]3CC[C@H](C(=O)Cn4cc(C(F)(F)F)cn4)[C@@]3(C)CC[C@@H]12` [Compound 67], for which the IC50 fell in the range of 10 to 50 nM. For `CC(C)OC[C@]12CC[C@@](C)(O)C[C@H]1CC[C@H]1[C@@H]3CC[C@H](C(=O)Cn4nnc5c(F)c(F)ccc54)[C@@]3(C)CC[C@@H]12` [Compound 68], the 50% inhibitory concentration (IC50) was less than 10 nM.

For `CC(C)OC[C@]12CC[C@@](C)(O)C[C@H]1CC[C@H]1[C@@H]3CC[C@H](C(=O)Cn4nnc5ccc(F)c(F)c54)[C@@]3(C)CC[C@@H]12` [Compound 69], the IC50 was less than 10 nM.
